# Key:
# HCV protease D168E = HCV protease D168E (Hepatitis C virus genotype 1a, UniProt P27958, D1194E); experiment: biochemical
# HCV protease = details: cited from earlier work
# wild-type HCV protease = wild-type HCV protease (Hepatitis C virus genotype 1a, UniProt P27958); format: biochemical
# HCV protease D168Y = HCV protease D168Y (Hepatitis C virus genotype 1a, UniProt P27958, D1194Y); experiment: biochemical
Compound,IC50 (HCV protease D168E) [nM],IC50 (HCV protease) [nM],IC50 (wild-type HCV protease) [nM],IC50 (HCV protease D168Y) [nM]
CC(C)(C)OC(=O)N[C@H]1CCCCC/C=C\[C@@H]2C[C@@]2(C(=O)NS(=O)(=O)C2CC2)NC(=O)[C@@H]2C[C@@H](OC(=O)N3Cc4cccc(F)c4C3)CN2C1=O [danoprevir],38.9 ± 2.4,~0.3,1.3 ± 0.1,34.4 ± 2.8
C=C[C@@H]1C[C@]1(NC(=O)[C@@H]1C[C@@H](Oc2ncc(OC)c3ccc(Cl)cc23)CN1C(=O)[C@@H](NC(=O)OC(C)(C)C)C(C)(C)C)C(=O)NS(=O)(=O)C1CC1 [asunaprevir],–,~1,–,–

# Source: PMC4215169 (Nature communications, 2014)
